# Laboratory results: US6486381B1, “Genetically engineered mice containing alterations in the genes encoding retinoic acid receptor proteins” (Institut National de la Sante et de la Recherche Medicale, priority 1993, dated 2002)
# Key:
# Format in all cases: in vivo, mouse
# [1] = test system: wild type, RARγ+/− and RARγ−/− fetuses; experiment: RA-induced skeletal malformations in wild type, RARγ+/− and RARγ−/− offspring
# Protocol: For whole mount skeletal analysis, fetuses were collected at day 18.5 p.c. and stored at −20° C. Skeletons were prepared as previously described (Lufkin et al., Nature 359:835-841 (1992)). For histological analysis, fetuses were skinned and then fixed in Bouin's fluid. Paraffin sections, 7 μm thick, were stained with Groat's hematoxylin and Mallory's trichrome. Organs were fixed in 10% formalin, and histological sections, 5 μm thick, were stained with hematoxylin and eosin. RARγ^+/− heterozygote animals were mated overnight and the presence of a vaginal plug at noon the next day considered as day 0.5 p.c. At various times, pregnant females received a single dose of RA dissolved in sunflower seed oil at a final delivery of 100 mg RA per kg animal. […] To determine if any of these malformations could be mediated by RARγ, pregnant dams from heterozygote crosses were treated with RA at day 8.5 or 9.0 p.c., and we examined day 18.5 p.c. fetuses for skeletal malformations. […] Comparison of RA-induced skeletal malformations in wild type, RARγ^+/− and RARγ^−/− offspring. […] Skeletons were prepared, and malformations scored under a dissecting microscope. Where possible, fetuses from the same litter were compared.
# [2] = test system: RARγ2−/− animals; experiment: RA-induced skeletal malformations in RARγ2−/− animals; conditions: RARγ2−/− animals versus control littermates, identical conditions
# [3] = test system: wild type and RARβ2 null embryos; experiment: RA-induced hindbrain and forebrain alterations in wild type and RARβ2 null embryos (in situ hybridization); conditions: 25 mg/kg at 7.25 dpc
# Protocol: For generation of hindbrain malformations timed mating experiments were performed and all-trans RA (Sigma) (25 mg/kg body weight) was administered to the mother by oral gavage at 7.25 dpc. Embryos were collected at 9.0 dpc, yolk sacs were taken for genotyping and embryos were fixed in 4% paraformaldehyde and embedded in paraffin for in situ hybridization on sections. For each embryo, three sets of alternate sections were hybridized to Hoxb-1, Krox-20 and Hoxa-3 probes. These probes have been described previously (Gaunt et al., Development 104 suppl.:71-82 (1988); Wilkinson et al., Nature 337:461-464 (1989); Hunt et al., Nature 353:861-864 (1991)). […] A separate series of embryos was processed for whole-mount in situ hybridization with a digoxigenin-labelled Hoxb-1 riboprobe. Both in situ hybridization procedures were performed as described in Décimo et al. (“In situ Hybridization to Cellular RNA,” in Gene Probes: A Practical Approach, Vol. 2, Hames et al., eds., Oxford University Press, Oxford, England, in press). For induction of limb malformations, all-trans RA was administered at 11.5 dpc (80 mg/kg) and fetuses were collected at 18.5 dpc and analyzed for skeletal malformations. For investigating induction of RARβ2 promoter activity in RARβ2 mutants, 25 mg/kg RA was administered at days 10.5 and 11.5 pc, then embryos were collected and stained for LacZ activity after 4 hours. For whole-mount skeletal analysis, fetuses were collected at 18.5 dpc by ceasarean section and skeletons were prepared as described (Lufkin et al., Nature 359:835-841 (1992)). Histological analysis was as in Lohnes et al. (Cell 73:643-658 (1993)) and lacZ staining as in Mendelsohn et al. (Development 113:723-734 (1991)).
# RARβ2+/− intercrosses were set up, and pregnant females were given 25 mg/kg all-trans RA at 7.25 dpc, a dose which is known to produce rhombomeric alterations. […] Hoxb-1 expression was analyzed by whole-mount in situ hybridization.
# [4] = test system: wild type and RARβ2 null fetuses; experiment: RA-induced limb malformations in wild type and RARβ2 null fetuses; conditions: 80 mg/kg in utero at 11.5 dpc, fetuses at 18.5 dpc
# Protocol: For generation of hindbrain malformations timed mating experiments were performed and all-trans RA (Sigma) (25 mg/kg body weight) was administered to the mother by oral gavage at 7.25 dpc. Embryos were collected at 9.0 dpc, yolk sacs were taken for genotyping and embryos were fixed in 4% paraformaldehyde and embedded in paraffin for in situ hybridization on sections. For each embryo, three sets of alternate sections were hybridized to Hoxb-1, Krox-20 and Hoxa-3 probes. These probes have been described previously (Gaunt et al., Development 104 suppl.:71-82 (1988); Wilkinson et al., Nature 337:461-464 (1989); Hunt et al., Nature 353:861-864 (1991)). […] A separate series of embryos was processed for whole-mount in situ hybridization with a digoxigenin-labelled Hoxb-1 riboprobe. Both in situ hybridization procedures were performed as described in Décimo et al. (“In situ Hybridization to Cellular RNA,” in Gene Probes: A Practical Approach, Vol. 2, Hames et al., eds., Oxford University Press, Oxford, England, in press). For induction of limb malformations, all-trans RA was administered at 11.5 dpc (80 mg/kg) and fetuses were collected at 18.5 dpc and analyzed for skeletal malformations. For investigating induction of RARβ2 promoter activity in RARβ2 mutants, 25 mg/kg RA was administered at days 10.5 and 11.5 pc, then embryos were collected and stained for LacZ activity after 4 hours. […]
# [5] = test system: RARα1 null homozygotes; experiment: RA-induced malformations in RARα1 null homozygotes; conditions: RA at days 8.5-9.0 p.c.
# [6] = RA 100 mg/kg single dose to dam at day 8.5 p.c., RARγ +/+ fetuses, day 18.5 p.c.
# [7] = RA 100 mg/kg single dose to dam at day 8.5 p.c., RARγ +/− fetuses, day 18.5 p.c.
# [8] = RA 100 mg/kg single dose to dam at day 8.5 p.c., RARγ −/− fetuses, day 18.5 p.c.
# [9] = RA 100 mg/kg single dose to dam at day 9.0 p.c., +/−, fetuses day 18.5 p.c.
# [10] = RA 100 mg/kg single dose to dam at day 9.0 p.c., RARγ +/− fetuses, day 18.5 p.c.
# [11] = RA 100 mg/kg single dose to dam at day 9.0 p.c., RARγ −/− fetuses, day 18.5 p.c.
smiles,measurement,setting,value
"CC1=C(/C=C/C(C)=C/C=C/C(C)=C/C(=O)O)C(C)(C)CCC1 [RA, retinoic acid]",Caudal truncations,[1]; [6],11 (100%) fetuses (%)
same,Craniofacial malformations,[1]; [6],11 (100%) fetuses (%)
same,Degenerate ribs,[1]; [6],10 (91%) fetuses (%)
same,Homeotic transformations: 8 vertebrosternal ribs (T8 → T7),[1]; [6],7 (64%) fetuses (%)
same,Homeotic transformations: 14 or 15 ribs (L → T),[1]; [6],6 (54%) fetuses (%)
same,Caudal truncations,[1]; [7],13 (81%) fetuses (%)
same,Craniofacial malformations,[1]; [7],16 (100%) fetuses (%)
same,Degenerate ribs,[1]; [7],6 (38%) fetuses (%)
same,Homeotic transformations: 8 vertebrosternal ribs (T8 → T7),[1]; [7],8 (50%) fetuses (%)
same,Homeotic transformations: 14 or 15 ribs (L → T),[1]; [7],14 (87%) fetuses (%)
same,Malformed lumbar/sacral vertebrae,[1]; [7],3 (19%) fetuses (%)
same,Caudal truncations,[1]; [8],0 (0%) fetuses (%)
same,Craniofacial malformations,[1]; [8],10 (100%) fetuses (%)
same,Degenerate ribs,[1]; [8],0 (0%) fetuses (%)
same,Homeotic transformations: 8 vertebrosternal ribs (T8 → T7),[1]; [8],6 (50%) fetuses (%)
same,Homeotic transformations: 14 or 15 ribs (L → T),[1]; [8],7 (70%) fetuses (%)
same,Homeotic transformations: Number of lumbar vertebrae: 5,[1]; [8],1 (10%) fetuses (%)
same,Homeotic transformations: Number of lumbar vertebrae: 6,[1]; [8],9 (90%) fetuses (%)
same,Homeotic transformations: Number of lumbar vertebrae: 7,[1]; [8],0 (0%) fetuses (%)
same,Malformed lumbar/sacral vertebrae,[1]; [8],0 (0%) fetuses (%)
same,Caudal truncations,[1]; [9],13 (100%) fetuses (%)
same,Craniofacial malformations,[1]; [9],13 (100%) fetuses (%)
same,Degenerate ribs,[1]; [9],0 (0%) fetuses (%)
same,Homeotic transformations: 8 vertebrosternal ribs (T8 → T7),[1]; [9],7 (54%) fetuses (%)
same,Homeotic transformations: 14 or 15 ribs (L → T),[1]; [9],7 (54%) fetuses (%)
same,Caudal truncations,[1]; [10],14 (58%) fetuses (%)
same,Craniofacial malformations,[1]; [10],24 (100%) fetuses (%)
same,Degenerate ribs,[1]; [10],0 (0%) fetuses (%)
same,Homeotic transformations: 8 vertebrosternal ribs (T8 → T7),[1]; [10],9 (38%) fetuses (%)
same,Homeotic transformations: 14 or 15 ribs (L → T),[1]; [10],8 (33%) fetuses (%)
same,Malformed lumbar/sacral vertebrae,[1]; [10],10 (42%) fetuses (%)
same,Caudal truncations,[1]; [11],0 (0%) fetuses (%)
same,Craniofacial malformations,[1]; [11],18 (100%) fetuses (%)
same,Degenerate ribs,[1]; [11],0 (0%) fetuses (%)
same,Homeotic transformations: 8 vertebrosternal ribs (T8 → T7),[1]; [11],11 (61%) fetuses (%)
same,Homeotic transformations: 14 or 15 ribs (L → T),[1]; [11],11 (61%) fetuses (%)
same,Homeotic transformations: Number of lumbar vertebrae: 5,[1]; [11],1 (7%) fetuses (%)
same,Homeotic transformations: Number of lumbar vertebrae: 6,[1]; [11],15 (83%) fetuses (%)
same,Homeotic transformations: Number of lumbar vertebrae: 7,[1]; [11],3 (16%) fetuses (%)
same,Malformed lumbar/sacral vertebrae,[1]; [11],0 (0%) fetuses (%)
same,"lumbar to thoracic, sacral to lumbar and lumbar to sacral vertebral transformations",[1]; RA-treated RARγ null homozygotes,also occurred
same,RA-induced truncations,"[1]; RARγ heterozygotes, RA at day 8.5 p.c.",partially resistant
same,"lumbo-sacral vertebral malformations, including fusion of the neural arches and disorganized vertebral centres","[1]; RARγ+/− animals, RA-treated",always exhibited lumbo-sacral vertebral malformations
same,"spina bifida, truncation of the axial skeleton in the post-thoracic region, degenerate or fused ribs, disorganized vertebral centres or malformed neural arches",[1]; RARγ−/− embryos exposed to RA at day 8.5 p.c.,none
same,truncations and associated defects,"[1]; RARγ−/− littermates, RA at day 9.0 p.c.",never observed
same,truncations and associated defects,"[1]; WT embryos, RA at day 9.0 p.c. compared to day 8.5 p.c.",progressively more posterior truncations and associated defects
same,"spina bifida, truncation of the axial skeleton in the post-thoracic region, degenerate or fused ribs, disorganized vertebral centres or malformed neural arches",[1]; WT fetuses exposed to RA at day 8.5 p.c.,All WT fetuses exhibited these malformations
same,type and frequency of RA-induced malformations,[2],same type and frequency of RA-induced malformations as control littermates
same,Hoxa-3 expression pattern,[3]; embryos collected at 9.0 dpc,No significant alteration
same,forebrain truncation,"[3]; observed at 9.0-9.5 dpc, wild-type and RARβ2 null embryos",Severe truncations of the forebrain
same,Krox-20 transcripts (in situ hybridization),[3]; RA-treated embryos,not detected in the putative R3
same,Hoxb-1 expression (in situ hybridization),[3]; wild type and RARβ2 null mutants,rostral expansion of the Hoxb-1 transcript domain
same,"nature or extent of the limb malformations, wild type versus RARβ2 null fetuses",[4],no apparent differences
same,"limb malformations (truncated long bones, missing digits)","[4]; wild type and RARβ2 null, compared to untreated",severely malformed limbs
same,resistance to RA-induced malformations (lumbosacral truncations),[5],not observed
